Measured values published in US20260060972A1, “Quantitative Method of Determining a Mental Status Based on DRD1 and/or DRD5, and its Application Thereof” (priority 2022, published 2026).
“Also recorded” adds a separate entry of the source.

Legend:
[1] = test system: 2.8-kb human DRD1 gene promoter; assay: Dual-luciferase reporter assay of human DRD1 gene promoter in SH-SY5Y cells; conditions: for effect on SCH23390/SKF81297-altered DRD1 promoter activity: co-treatment with SCH23390 or SKF81297
human DRD1 gene = assay: DRD1 mRNA expression by quantitative real time-PCR in SH-SY5Y cells; conditions: for DRD1 mRNA expression, time response: 10 μM, 12, 18, 24, 30 or 32 hrs; for effect of Haloperidol co-treatment on SCH23390-decreased DRD1 mRNA expression: Haloperidol 10 μM co-treatment 12 hrs
Description: Time-response study. […] The controls received DMSO only. After each time period, the cells were harvested and processed for mRNA analysis of human DRD1 gene.
After treatment, the cells were harvested and processed for mRNA and protein analysis of human DRD1 gene.
After treatment, the cells were harvested and processed for mRNA and protein analysis of human DRD1 gene
The concentration and purity of total RNAs was determined by Biospectrometer (Eppendorf, Hauppauge, NY) at 260 nm. Only RNA samples with an A260/A280 ratio between 1.8-2.0 were used for cDNA synthesis. Briefly, 3 μg total RNAs were reversely transcribed into cDNA using Random and Oligo 9dT) Primers (cat #PR-C1181, Fisher Scientific, Hanover Park, IL), Oilgo dT (cat #FERSO131, Fisher Scientific, Hanover Park, IL), and SuperScript II reverse transcriptase (Life Technologies, Carlsbad, CA) following the manufacturer's instructions. The synthesized cDNA samples were stored at −20° C.
Each cDNA sample, in duplicate, was placed into 96-well plates and mixed with SYBR Select Master Mix (Life Technologies, Carlsbad, CA) and gene-specific primer set. In general, each SYBR reactions in each well contains 5 ml SYBR Select Master Mix, 0.2 μl 10 μM gene-specific primer set, 1.8 μl deionized distilled water, and 3 μl cDNA samples. The qRT-PCR assay was performed in an AriaMx qRT-PCR system (Agilent Technologies; Santa Clara, CA). The relative mRNA expression of each individual gene was calculated according to the comparative delta-delta CT method. The results were expressed as a relative fold, normalized to the expression of 18s rDNA. All quantitative RT-PCR primers were designed using PubMed Primer-BLAST or Primer3 software (NIH) and synthesized by Eurofins (Eurofins MWG Operon USA, Louisville, KY).
The sequences of RT-PCR primers of human DRD1 are as follows: • Gene human DRD1, forward primer: [Sequence ID: 1] 5′-[sequence]-3′, reverse primer: [Sequence ID: 2] 5′-[sequence]-3′ • Gene 18s rDNA, NM number NR_003278.3, forward primer [Sequence ID: 3] 5′-[sequence]-3′; reverse primer [Sequence ID: 4] 5′-[sequence]-3′

DRD1 membrane protein = conditions: treatment for 36 hrs
Description: The cultured SH-SY5Y cells were pretreated with complete EMEM medium containing 10 μM SCH23390 for 6 hrs or 12 hrs. […] After treatment, the cells were harvested and processed for mRNA and protein analysis of human DRD1 gene.
The cultured SH-SY5Y cells were pretreated with complete EMEM medium containing 10 μM SKF81297 for 6 hrs or 12 hrs. […] After treatment, the cells were harvested and processed for mRNA and protein analysis of human DRD1 gene
The membrane proteins were extracted using the mem-PER Plus membrane protein extraction kit (ThermoFisher Scinetific, Waltham, MA). The protein concentrations were semi-quantified spectrophotometrically at 280 nm. […] Then, proteins were electro-transferred to a polyvinyl difluoride (PVDF) membrane. […] After the block, the membrane was incubated with primary antibody (human DRD1 antibody, 1:1000) overnight at 4° C. […] The membrane was briefly washed 3 times using fresh TBS, then incubated with Pierce High Sensitivity Streptavidin HRP-linked secondary antibody (1:5000) in TBS supplemented with 0.5% BSA for 30 minutes at room temperature. The membrane was rinsed 3 times using fresh TBS. The immunoreactive protein bands in the membrane were visualized via UVP Biospectrum Imaging system (Upland, CA) using with Immobilon Chemiluminescence reagents (Millipore, Billerica, MA). Protein bands analysis was performed using the ImageJ (NIH, Bethesda, MD).

[2] = 10 μM, treatment for 18 hrs (FIG. 2A, 3A)
[3] = 10 μM, treatment for 24 hrs (FIG. 2A, 3A)

CN(C)C(=O)N[C@H]1CC[C@H](CCN2CCN(c3cccc(Cl)c3Cl)CC2)CC1 [Cariprazine]
effect on SCH23390/SKF81297-altered DRD1 promoter activity [1]: trans-stabilize SCH23390/SKF81297-altered DRD1 promoter activity

Cc1nc2n(c(=O)c1CCN1CCC(c3noc4cc(F)ccc34)CC1)CCCC2 [Risperidone]
relative Luciferase activity of DRD1 under treatment of SCH and antipsychotic ([1]; co-treatment of SCH (FIG. 5A, 6A)): partial DRD1 antagonist effect
relative Luciferase activity of DRD1 under treatment of SKF and antipsychotic ([1]; co-treatment of SKF (FIG. 5B, 6B)): partial DRD1 antagonist effect
effect on SCH23390/SKF81297-altered DRD1 promoter activity [1]: trans-stabilize SCH23390/SKF81297-altered DRD1 promoter activity; also recorded: reverse and normalize either SCH23390 or SKF81297-altered human DRD1 promoter activity

O=C(CCCN1CCC(O)(c2ccc(Cl)cc2)CC1)c1ccc(F)cc1 [Haloperidol]
DRD1 mRNA expression, time response (human DRD1 gene; SH-SY5Y cells (FIG. 1A)): did not alter DRD1 mRNA expression at any time points
DRD1 mRNA and protein expression, treatment alone (summary) (human DRD1 gene; 10 μM, SH-SY5Y cells): does not alter DRD1 expression
DRD1 mRNA expression, treatment alone (human DRD1 gene; [2]): did not alter DRD1 mRNA expression
DRD1 mRNA expression, treatment alone (human DRD1 gene; [3]): did not alter DRD1 mRNA expression
effect of Haloperidol co-treatment on SKF81297-increased DRD1 mRNA expression (human DRD1 gene; Haloperidol co-treatment for 12 hrs (FIG. 3A)): completely diminished SKF81297-increased DRD1 mRNA expression
effect of Haloperidol co-treatment on SCH23390-decreased DRD1 mRNA expression (human DRD1 gene; SCH23390 10 μM for 18 hrs): completely reversed
effect of Haloperidol co-treatment on SCH23390-decreased DRD1 mRNA expression (human DRD1 gene; SCH23390 10 μM for 24 hrs): not reversed
effect of Haloperidol co-treatment on SCH23390-decreased DRD1 mRNA and protein expression (summary) (human DRD1 gene; SH-SY5Y cells (FIGS. 2A-2E)): reverses SCH23390-decreased DRD1 mRNA and protein expression; also recorded: reversed
effect of Haloperidol co-treatment on SKF81297-increased DRD1 mRNA and protein expression (summary) (human DRD1 gene; SH-SY5Y cells (FIGS. 3A-3E)): attenuated SKF81297-increased DRD1 mRNA and protein expression
human DRD1 gene promoter activity, treatment alone ([1]; 2.8-kb promoter luciferase reporter, SCH23390 and SKF81297 for 36 hrs (FIG. 4A, 4B)): did not change human DRD1 gene promoter activity
effect of haloperidol cotreatment on SCH23390-repressed DRD1 promoter activity ([1]; SCH23390 36 hrs, haloperidol cotreatment 24 or 36 hrs (FIG. 4A)): reversed
effect of haloperidol co-treatment on SKF81297-activated DRD1 promoter activity ([1]; SKF81297 36 hrs, haloperidol co-treatment 24 and 36 hrs (FIG. 4B)): markedly attenuated
effect on SCH23390/SKF81297-altered DRD1 promoter activity [1]: reversed SCH23390/SKF21897-altered DRD1 promoter activity; also recorded: reversed either SCH23390 or SKF81297-altered human DRD1 promoter activity

Oc1cc2c(c(Cl)c1O)CCNCC2c1ccccc1 (stereo not drawn) [SKF81297, SKF-81297]
DRD1 mRNA expression, time response (human DRD1 gene; SH-SY5Y cells (FIG. 1A)): time-dependently increased DRD1 mRNA expression
increase of DRD1 mRNA expression (human DRD1 gene; 10 μM, 24 hrs later, SH-SY5Y cells (FIG. 1A)): 6 fold
DRD1 mRNA expression 30 hrs later and thereafter (human DRD1 gene; 10 μM, 30 hrs later and thereafter, SH-SY5Y cells): decreased to basal level
DRD1 mRNA and protein expression, treatment alone (summary) (human DRD1 gene; 10 μM, SH-SY5Y cells): increases DRD1 mRNA and protein expression in a time-dependent manner
DRD1 mRNA expression, treatment alone (human DRD1 gene; [2]): increased human DRD1 mRNA expression
DRD1 mRNA expression, treatment alone (human DRD1 gene; [3]): increased human DRD1 mRNA expression

CN1CCc2cc(Cl)c(O)cc2[C@@H](c2ccccc2)C1 [SCH23390, SCH-23390]
decrease of DRD1 membrane protein (DRD1 membrane protein): more than 70%
